Test [1] addresses 5-HT1A receptor. As to the kind of experiment: In vitro receptor binding, 5-HT1A. As to the method:
In vitro IC50 test values for binding to the 5-HT1A receptor were determined for representative compounds of Formula I by the method of S. J. Peroutka, Brain Research 344, 167 (1985); with only minor modifications. Test IC50 values lower than 100 nM are considered to reflect activity at the 5-HT1A receptor.

Test [2] deals with T1, D2 receptor (Bos taurus, UniProt P20288).
T1 construct: from tissue
T1 sequence (P20288 whole entry): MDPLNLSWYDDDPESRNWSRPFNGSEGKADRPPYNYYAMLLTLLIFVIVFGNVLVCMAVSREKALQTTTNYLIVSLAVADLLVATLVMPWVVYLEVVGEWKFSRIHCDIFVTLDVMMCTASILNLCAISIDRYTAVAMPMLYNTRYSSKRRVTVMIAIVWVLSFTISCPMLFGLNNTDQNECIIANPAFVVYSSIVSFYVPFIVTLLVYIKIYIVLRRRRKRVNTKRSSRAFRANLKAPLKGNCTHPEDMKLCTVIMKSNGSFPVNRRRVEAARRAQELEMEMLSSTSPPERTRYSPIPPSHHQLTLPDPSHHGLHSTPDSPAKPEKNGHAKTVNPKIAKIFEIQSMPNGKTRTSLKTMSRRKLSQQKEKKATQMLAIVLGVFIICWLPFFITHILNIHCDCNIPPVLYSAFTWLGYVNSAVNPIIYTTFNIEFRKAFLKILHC
The test is described as follows: In vitro receptor binding, D2.
Protocol: In vitro IC50 test values for binding to the D2 receptor were determined for representative compounds of Formula I by the method of Burt, Creese, and Snyder, Molecular Pharmacology 12, 800 (1976); Creese, Burt, and Snyder, Science 196, 326 (1977); and Creese, Burt and Snyder, Science.

Where [3] appears, read: in vitro, read-out: D2 receptor binding IC50.

Each structure is given as a SMILES string. Counter-ions that a name gives are not always drawn. Like-named read-outs stand apart in the source and are kept apart here.

In test [1], `O[C@]1(c2ccc3c(c2)OCO3)CC[C@H](N2CCN(Cc3cc(Cl)ccc3Cl)CC2)CC1` [Example 28, Z-1-(1,3-Benzodioxol-5-yl)-4-[4-[(2,5-dichlorophenyl)methyl]-1-piperazinyl]-cyclohexanol] displayed an IC50 of 0.6 nM.

Regarding `COc1ccc(F)c(CN2CCN([C@H]3CC[C@](O)(c4ccc5c(c4)OCO5)CC3)CC2)c1` [Example 39, Z-1-(1,3-Benzodioxol-5-yl)-4-[4-[(2-fluoro-5-methoxyphenyl)methyl]-1-piperazinyl]cyclohexanol], the 50% inhibitory concentration (IC50) in test [1] came to 0.75 nM.

With `O[C@]1(c2ccc3c(c2)OCCO3)CC[C@@H](N2CCN(Cc3ccccc3)CC2)CC1` [Example 20-E, E-1-(1,4-Benzodioxan-6-yl)-4-[4-(phenylmethyl)-1-piperazinyl]cyclohexanol], the IC50 in test [1] was determined as 5.3 nM. Take `COc1cccc(CN2CCN([C@H]3CC[C@](O)(c4ccc(F)cc4)CC3)CC2)c1` [Example 34, Z-1-(4-Fluorophenyl)-4-[4-[(3-methoxyphenyl)methyl]-1-piperazinyl]cyclohexanol]: in test [1], the half-inhibitory concentration (IC50) came out at 10.6 nM. The compound `COc1cccc(CC2CCN([C@H]3CC[C@](O)(c4ccc5c(c4)OCCO5)CC3)CC2)c1` [Example 41, Z-1-(1,4-Benzodioxan-6-yl)-4-[4-[(3-methoxyphenyl)methyl]-1-piperidinyl]cyclohexanol] gave an IC50 in test [1] of 2.2 nM. Still for that read-out and setting: to `O[C@]1(c2ccc3c(c2)OCO3)CC[C@H](N2CCN(Cc3ccccc3Cl)CC2)CC1` [Example 27, Z-1-(1,3-Benzodioxol-5-yl)-4-[4-[(2-chlorophenyl)methyl]-1-piperazinyl]cyclohexanol] belongs 1.85 nM. Consider `COc1ccc([C@]2(O)CC[C@@H](N3CCN(Cc4ccccc4)CC3)CC2)cc1` [Example 18, Z-1-(4-Methoxyphenyl):4-[4-(phenylmethyl)-1-piperazinyl]cyclohexane], for which the concentration for half-maximal inhibition (IC50) in test [1] amounted to 46.5 nM; in test [2] (setting [3]), 1830 nM. For the compound `O[C@]1(c2ccc3c(c2)OCO3)CC[C@H](N2CCN(Cc3cc(F)ccc3F)CC2)CC1` [Example 29, Z-1-(1,3-Benzodioxol-5-yl)-4-[4-[(2,5-difluorophenyl)methyl]-1-piperazinyl]-cyclohexanol], in test [1], the IC50 came to 2.6 nM. The same measure, in the same setting: for `COc1cccc(CC2CCN([C@H]3CC[C@](O)(c4ccc(F)cc4)CC3)CC2)c1` [Example 48] the value was 31.9 nM.

In test [1], `CO[C@]1(c2ccc3c(c2)OCO3)CC[C@H](N2CCC(Cc3cc(F)ccc3F)CC2)CC1` [Example 46, Z-1-[4-(1,3-Benzodioxol-5-yl)-4-methoxy-1-cyclohexyl]-4-[(2,5,-difluorophenyl)-methyl]piperidine fumarate] came in with a half-maximal inhibitory concentration (IC50) of 16.2 nM. The same measure, in the same setting: for `O[C@]1(c2ccc(F)cc2)CC[C@H](N2CCC(Cc3ccccc3)CC2)CC1` [Example 47, Z-1-(4-Fluorophenyl)-4-[4-(phenylmethyl)-1-piperidinyl]cyclohexanol] the value was 59.8 nM. Compound `O[C@]1(c2ccc3c(c2)OCO3)CC[C@H](N2CCN(Cc3cccc4c3OCO4)CC2)CC1` [Example 33, Z-1-(1,3-Benzodioxol-5-yl)-4-[4-[(1,3-benzodioxo-4-yl)methyl]-1-piperazinyl]-cyclohexanol] gave an IC50 in test [1] of 34.9 nM.

In turn, `O[C@]1(c2ccc(F)cc2)CC[C@H](N2CCC(Cc3cc(F)ccc3F)CC2)CC1` [Example 49, Z-1-(4-Fluorophenyl)-4-[4-[(2,5-difluorophenyl)methyl]-1-piperidinyl]cyclohexanol] registered an IC50 in test [1] of 57.6 nM.

On to `O=[N+]([O-])c1ccccc1CN1CCN([C@H]2CC[C@](O)(c3ccc4c(c3)OCO4)CC2)CC1` [Example 25, Z-1-(1,3-Benzodioxol-5-yl)-4-[4-[(2,-nitrophenyl)methyl]-1-piperazinyl]cyclohexanol], for which the IC50 in test [1] amounted to 12.8 nM; in test [2] (setting [3]), 7080 nM. In the same order, the values of `COc1ccc([C@]2(O)CC[C@@H](N3CCC(Cc4ccccc4)CC3)CC2)cc1` [Example 16, Z-1-(4-Methoxyphenyl)-4-[4-(phenylmethyl)-1-piperidinyl]cyclohexanol] are 15.6 nM and 2710 nM. In the case of `CC(c1ccccc1)N1CCN([C@H]2CC[C@](O)(c3ccc4c(c3)OCO4)CC2)CC1` (stereo partly drawn) [Example 52, Z-1-(1,3-Benzodioxol-5-yl)-4-[4-(1-phenylethyl)-1-piperazinyl]cyclohexanol], the 50% inhibitory concentration (IC50) in test [1] stood at 18.1 nM. Turning to `COc1ccc(F)c(CN2CCN([C@H]3CC[C@](O)(c4ccc(F)cc4)CC3)CC2)c1` [Example 40, Z-1-(4-Fluorophenyl)-4,-[4,-[(2-fluoro-5-methoxyphenyl)methyl]-1piperazinyl]cyclohexanol], the half-inhibitory concentration (IC50) in test [1] came out at 3.45 nM.

Regarding `COc1cccc(CN2CCN([C@H]3CC[C@](O)(c4ccc(C(F)(F)F)cc4)CC3)CC2)c1` [Example 38, Z-1-[(4-Trifluoromethyl)phenyl]-4-[4-[(3-methoxyphenyl)methyl]-1-piperazinyl]-cyclohexanol], the IC50 in test [1] worked out at 35.6 nM. Turning to `COc1cccc(CN2CCN([C@H]3CC[C@](O)(c4ccc5c(c4)OCO5)CC3)CC2)c1` [Example 21, Z-1-(1,3,-Benzodioxol-5-yl)-4-[4-[(3-methoxyphenyl)methyl]-1-piperazinyl]-cyclohexanol], the IC50 in test [1] was 2.15 nM; in test [2] (setting [3]), 1040 nM. Compound `O[C@]1(c2ccc3c(c2)OCO3)CC[C@H](N2CCN(Cc3ccccc3I)CC2)CC1` [Example 32, Z-1-(1,3-Benzodioxol-5-yl)-4-[4-[(2-iodophenyl)methyl]-1-piperazinyl]cyclohexanol] yielded an IC50 in test [1] of 1.2 nM. Take `O[C@]1(c2ccc3c(c2)OCO3)CC[C@H](N2CCN(Cc3ccccc3F)CC2)CC1` [Example 23, Z-1-(1,3-Benzodioxol-5-yl)-4-[4,[(2-fluorophenyl)methyl]-1-piperazinyl]cyclohexanol]: the IC50 in test [1] turned out to be 10.1 nM; in test [2], 1540 nM. `COc1cccc(CC2CCN([C@H]3CC[C@](OC)(c4ccc5c(c4)OCCO5)CC3)CC2)c1` [Example 45, Z-1-[4-(1,4-Benzodioxan-6-yl)-4-methoxy-1-cyclohexyl]-4-[3-(methoxyphenyl)methyl]-piperidine fumarate] came in with an IC50 in test [1] of 3.4 nM. Turning to `O[C@]1(c2ccc3c(c2)OCO3)CC[C@H](N2CCC(Cc3ccccc3)CC2)CC1` [Example 15, Z-1-(1,3-Benzodioxol-5-yl)-4-[4-(phenylmethyl)-1-piperidinyl]cyclohexanol], the figures for the half-inhibitory concentration (IC50) in test [1] and in test [2] (setting [3]) were 5.4 nM and greater than 1000 nM, respectively. As for `COc1cccc(CC2CCN([C@H]3CC[C@](O)(c4ccc5c(c4)OCO5)CC3)CC2)c1` [Example 42, Z-1-(1,3-Benzodioxol-5-yl)-4-[4-[(3-methoxyphenyl)methyl]-1-piperidinyl]cyclohexanol], the concentration for half-maximal inhibition (IC50) in test [1] worked out at 4.4 nM. Consider `COc1cccc(CC2CCN([C@H]3CC[C@](OC)(c4ccc5c(c4)OCO5)CC3)CC2)c1` [Example 44, Z-1-[4-(1,3-Benzodioxol-5-yl)-4-methoxy-1-cyclohexyl]-4-[(3-methoxyphenyl)methyl]-piperidine], for which the IC50 in test [1] stood at 8.2 nM; in test [2] (setting [3]), 49200 nM. In turn, `O[C@]1(c2ccc3c(c2)OCO3)CC[C@H](N2CCN(Cc3cccc(F)c3)CC2)CC1` [Example 22, Z-1-(1,3-Benzodioxol-5-yl)-4-[4-[(3-fluorophenyl)methyl]-1-piperazinyl]cyclohexanol] came in with an IC50 in test [1] of 13.4 nM. Same read-out and setting: to `O[C@]1(c2ccc3c(c2)OCO3)CC[C@H](N2CCN(Cc3cccs3)CC2)CC1` [Example 26, Z-1-(1,3-Benzodioxol-5-yl)-4-[4-(2-thienylmethyl)-1-piperazinyl]cyclohexano] belongs 19.1 nM. For `CO[C@]1(c2ccc3c(c2)OCO3)CC[C@H](N2CCN(Cc3ccccc3)CC2)CC1` [Example 19, Z-1-[4-(1,3,-Benzodioxol-5-yl)-4-methoxycyclohexyl]-4-(phenylmethyl)piperazine], the IC50 in test [1] worked out at 14 nM; in test [2] (setting [3]) it was 1350 nM. In test [1], `O[C@]1(c2ccc(F)cc2)CC[C@H](N2CCN(Cc3ccccc3Cl)CC2)CC1` [Example 35, Z-1-(4-Fluorophenyl)-4-[4-[(2-chlorophenyl)methyl]-1-piperazinyl]cyclohexanol] had an IC50 of 5.9 nM. On to `O[C@]1(c2ccc3c(c2)OCO3)CC[C@H](N2CCN(Cc3ccccc3)CC2)CC1` [Example 17, Z-1-(1,3-Benzodioxol-5-yl)-4-[4-(phenylmethyl)-1-piperazinyl]cyclohexanol], for which the values for the IC50 in test [1] and in test [2] (setting [3]) were 20 nM and 1710 nM, respectively. `O[C@]1(c2ccc(C(F)(F)F)cc2)CC[C@H](N2CCN(Cc3ccccc3Cl)CC2)CC1` [Example 37, Z-1-[(4-Trifluoromethyl)phenyl]-4-[4-[(2-chlorophenyl)methyl]-1-piperazinyl]-cyclohexanol] registered an IC50 in test [1] of 25.8 nM. `O[C@]1(c2ccc3c(c2)OCO3)CC[C@H](N2CCN(Cc3ccccc3Br)CC2)CC1` [Example 50, Z-1-(1,3-Benzodioxol-5-yl)-4-[4-[(2-bromophenyl)methyl]-1-piperazinyl]cyclohexanol] returned an IC50 in test [1] of 1.2 nM. Still for that read-out and setting: for `O[C@]1(c2ccc3c(c2)OCO3)CC[C@H](N2CCN(Cc3cc(F)cc(F)c3)CC2)CC1` [Example 31, Z-1-(1,3-Benzodioxol-5-yl)-4-[4-[(3,5-difluorophenyl)methyl]-1-piperazinyl]-cyclohexanol] the value was 21.1 nM.

In test [1], `O[C@]1(c2ccc3c(c2)OCO3)CC[C@H](N2CCN(Cc3cccc(F)c3F)CC2)CC1` [Example 30, Z-1-(1,3-Benzodioxol-5-yl)-4-[4,[(2,3-difluorophenyl)methyl]-1-piperazinyl]-cyclohexanol] showed an IC50 of 17.3 nM. Consider `O[C@]1(c2ccc3c(c2)OCO3)CC[C@H](N2CCC(Cc3cc(F)ccc3F)CC2)CC1` [Example 43, Z-1-(1,3-Benzodioxol-5-yl)-4-[4-[(2,5-difluorophenyl)methyl]-1-piperidinyl]cyclohexanol], for which, in test [1], the concentration for half-maximal inhibition (IC50) came to 4.9 nM. Same read-out and setting: for `O[C@]1(c2ccc3c(c2)OCO3)CC[C@H](N2CCN(C(c3ccccc3)c3ccccc3)CC2)CC1` [Example 51, Z-1-(1,3-Benzodioxol-5-yl)-4-[4-(diphenylmethyl)-1-piperazinyl]cyclohexanol] the value was 28.6 nM.

By IC50 is commonly meant the concentration needed to halve the response being measured.

The values above are taken from patent US5478828A, “Piperazinyl-and piperidinyl-cyclohexanols” (Bristol-Myers Squibb Company, priority 1995, dated 1995).
